Data as given in US20240327372A1, “PREPARATION OF PHENE[…] […] STEREOISOMERS THEREOF AND PRECURSORS THEREOF” (priority 2022, published 2024).

Experiments:
hNav1.5 = hNav1.5 (Homo sapiens (Human), UniProt Q14524); assay: hNav1.5 Sodium Channel Assay (peak), Qube APC; format: cell-based; details: Nav1.5, Antagonist mode, test compound
Procedure: (§1) Where presented, IC50 values were determined by a non-linear, least squares regression analysis.
(§2) Recombinant HEK-293 cells stably transfected with human Nav1.5 cDNA, recombinant HEK293 cell line expressing the human Cav1.2 (L-type voltage gated calcium channel, hCav1.2 α1C/β2a/α2δ1, and recombinant CHO-K1 cells stably transfected with human hERG cDNA were used separately in each of these assays.
hNav1.5 Sodium Channel Assay—Qube APC Onset and steady state block of peak Nav1.5 current is measured using a pulse pattern, repeated every 5 sec, consisting of a hyperpolarizing pulse to −120 mV for a 200 ms duration, depolarization to −15 mV amplitude for a 40 ms duration, followed by step to 40 mV for 200 ms and finally a 100 ms ramp (1.2 V/s) to a holding potential of −80 mV. Peak current is measured during the step to −15 mV.

DAT [1] = target: T1, DAT (Rattus norvegicus (Rat), UniProt P23977); assay: [3H]Dopamine uptake inhibition in rat brain synaptosomes; format: biochemical; details: DA
Procedure: (§3) Materials used were: Neurotransmitters [3H]5-HT (PerkinElmer, NET498001MC) [^3H]Dopamine (PerkinElmer, NET673250UC) [^3H]Norepinephrine (PerkinElmer, NET377250UC); Test Compounds Racemic methylone HCl (Merck, M-140); (R)-methylone HCl (Pisgah Labs); (S)-methylone HCl (Pisgah Labs); Reference Compounds Citalopram (Tocris Bioscience 1427). JHW007 (Tocris Bioscience 4351). Nomifensine (Abcam ab146004).
(§4) Synaptosomes were prepared from Sprague Dawley (200-250 g) rat brain regions (hippocampus for NE, striatum for DA and midbrain for 5-HT) using standard protocols. Tissues were dissected, added to sucrose buffer (0.32 M), homogenized with a dounce-homogenizer and centrifuged at 100×g to remove cells and debris. Supernatant was collected and centrifuged 17,000×g for 10 minutes at 4° C. to pellet the synaptosomes. The pellet was resuspended in fresh assay buffer.
(§5) Uptake assays were carried out in 96-well plates in a final volume of 250 μL per well. To each well was added 150 μL synaptosomes, 50 μL test, non-specific compound or buffer alone. The plate was incubated at 30° C. for 30 minutes with gentle agitation. 50 μL radiolabeled neurotransmitter in buffer was then added to each well to initiate the uptake. The plate was incubated at 30° C. for a further 5 minutes with gentle agitation. The incubation was stopped by vacuum filtration onto presoaked GF/C filters using a 96-well FilterMate™ harvester, followed by 3 washes with ice-cold wash buffer. Filters were then dried under a warm air stream, sealed in polyethylene, scintillation cocktail added, and the radioactivity counted in a Wallac® TriLux 1450 MicroBeta counter.
(§6) For each concentration of drug, non-specific uptake was subtracted from total uptake to give specific uptake. Data was fitted using the non-linear curve fitting routines in Prism® (Graphpad Software Inc) to determine IC50.

cardiac ion channels = assay: In vitro cardiovascular safety screening test (ion channel panel, overall); format: cell-based, human; details: whole panel
Procedure: An in vitro cardiovascular safety screening test was run to investigate the effects of racemic methylone and two methylone stereoisomers ((R)-methylone and (S)-methylone) on selected ion channels critically linked to cardiovascular function and activity.
(§7) Electrophysiological assays were conducted to profile three compounds ((R)-methylone, (S)-methylone, or racemic methylone) for activities on the ion channel targets specified below using the Qube electrophysiological platform. Where presented, IC50 values were determined by a non-linear, least squares regression analysis. Reference standards were run as an integral part of each assay to ensure the validity of the results obtained.
(§8) Ion Channels tested were Eurofins Panel Part Number: CPROFullQB2DR Voltage-Gated Sodium: HEK-Nav1.5 (Peak), HEK-Nav1.5 (Late, Antagonist) Voltage-Gated Potassium: HEK-Kv4.3/KChIP2, CHO-hERG, CHO-KCNQ1/minK Voltage-Gated Calcium: HEK-Cav1.2 Inward-Rectifying Voltage-Gated Potassium: HEK-Kir2.1.

DAT [2] = target: T1, DAT; assay: DA release study; format: biochemical
hKCNQ1/hminK = hKCNQ1/hminK (Homo sapiens (Human), UniProt P51787); assay: hKCNQ1/hminK Potassium Channel Assay, Qube APC; format: cell-based; details: KCNQ1/mink, Antagonist mode, test compound
Procedure: as §7, §8
hKCNQ1/hminK Potassium Channel Assay—Qube APC After whole cell configuration is achieved, the cells are held at −80 mV. KCNQ1/minK currents are evoked by a 1000 ms pulse from −80 mV to 60 mV followed by a ramp from 60 mV to −80 mV over 115 ms with the outward peak currents measured upon depolarization of the cell membrane. This paradigm is delivered once every 15 s to monitor the current amplitude.

NET [3] = assay: NE release study; format: biochemical
hERG = hERG (Homo sapiens (Human), UniProt Q12809); assay: hERG Potassium Channel Assay, Qube APC; format: cell-based; details: Antagonist mode, test compound
Sequence of hERG (Q12809 whole entry): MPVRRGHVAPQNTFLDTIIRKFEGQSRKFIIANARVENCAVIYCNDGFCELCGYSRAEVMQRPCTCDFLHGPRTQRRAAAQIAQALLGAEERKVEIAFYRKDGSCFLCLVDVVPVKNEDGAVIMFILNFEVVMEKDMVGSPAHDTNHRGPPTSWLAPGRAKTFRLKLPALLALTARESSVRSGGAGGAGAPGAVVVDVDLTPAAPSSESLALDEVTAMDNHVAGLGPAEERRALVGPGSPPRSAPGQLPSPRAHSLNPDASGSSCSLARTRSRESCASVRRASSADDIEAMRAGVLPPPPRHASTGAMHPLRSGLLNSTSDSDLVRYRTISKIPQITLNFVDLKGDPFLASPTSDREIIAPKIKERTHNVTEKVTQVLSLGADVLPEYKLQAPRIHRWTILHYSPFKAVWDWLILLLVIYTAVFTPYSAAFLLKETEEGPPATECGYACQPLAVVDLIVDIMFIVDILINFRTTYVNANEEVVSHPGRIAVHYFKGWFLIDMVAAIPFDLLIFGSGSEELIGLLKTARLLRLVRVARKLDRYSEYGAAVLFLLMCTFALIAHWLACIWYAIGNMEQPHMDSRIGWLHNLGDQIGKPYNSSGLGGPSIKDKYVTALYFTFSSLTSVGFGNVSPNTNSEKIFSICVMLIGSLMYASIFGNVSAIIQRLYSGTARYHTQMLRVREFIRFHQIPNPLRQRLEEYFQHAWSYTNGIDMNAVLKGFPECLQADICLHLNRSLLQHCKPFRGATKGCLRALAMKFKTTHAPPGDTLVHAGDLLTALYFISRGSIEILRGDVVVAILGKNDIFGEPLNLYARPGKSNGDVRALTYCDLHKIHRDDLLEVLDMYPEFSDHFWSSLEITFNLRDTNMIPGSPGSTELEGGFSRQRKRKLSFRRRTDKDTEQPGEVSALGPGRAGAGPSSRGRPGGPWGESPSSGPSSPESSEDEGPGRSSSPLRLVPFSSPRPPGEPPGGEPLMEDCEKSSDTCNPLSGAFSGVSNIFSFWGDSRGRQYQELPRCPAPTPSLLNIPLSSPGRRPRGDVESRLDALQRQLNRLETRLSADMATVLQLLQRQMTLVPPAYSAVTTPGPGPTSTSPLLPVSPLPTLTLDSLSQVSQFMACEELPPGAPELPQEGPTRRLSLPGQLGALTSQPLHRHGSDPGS
Procedure: as §1, §2
hERG Potassium Channel Assay—Qube APC After whole cell configuration is achieved, the cells are held at −80 mV. Cells are held at this voltage for 50 ms to measure the leak current, which is subtracted from the tail current on-line. The cells are depolarized to +40 mV for 500 ms and then to −80 mV over a 100 ms ramp to elicit the hERG tail current. This paradigm is delivered once every 8 s to monitor the current amplitude.

hKv4.3/hKChIP2 = hKv4.3/hKChIP2 (Homo sapiens (Human), UniProt Q9UK17); assay: hKv4.3/hKChIP2 Potassium Channel Assay, Qube APC; format: cell-based; details: Kc4.3/ChIP2, Antagonist mode, test compound
Sequence of hKv4.3/hKChIP2 (Q9UK17 whole entry, looked up): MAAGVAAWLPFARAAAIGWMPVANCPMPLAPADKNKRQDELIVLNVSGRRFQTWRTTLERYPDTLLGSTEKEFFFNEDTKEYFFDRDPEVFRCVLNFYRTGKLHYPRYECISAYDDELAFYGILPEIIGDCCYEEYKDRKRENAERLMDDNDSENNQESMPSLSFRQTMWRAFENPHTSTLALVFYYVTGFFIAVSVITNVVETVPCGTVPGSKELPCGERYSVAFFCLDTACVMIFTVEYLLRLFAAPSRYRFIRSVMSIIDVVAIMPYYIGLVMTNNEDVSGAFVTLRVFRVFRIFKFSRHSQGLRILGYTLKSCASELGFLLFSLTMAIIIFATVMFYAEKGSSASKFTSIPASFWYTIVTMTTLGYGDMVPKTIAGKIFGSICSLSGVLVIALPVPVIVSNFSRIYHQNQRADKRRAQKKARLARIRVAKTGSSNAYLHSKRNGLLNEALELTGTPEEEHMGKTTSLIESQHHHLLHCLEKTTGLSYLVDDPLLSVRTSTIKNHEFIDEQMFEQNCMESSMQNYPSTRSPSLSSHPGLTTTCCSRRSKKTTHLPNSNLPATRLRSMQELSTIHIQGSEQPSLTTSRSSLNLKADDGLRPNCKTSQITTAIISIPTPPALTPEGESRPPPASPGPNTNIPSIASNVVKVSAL
Sequence of hKv4.3/hKChIP2 (Q9NS61 whole entry partner, looked up): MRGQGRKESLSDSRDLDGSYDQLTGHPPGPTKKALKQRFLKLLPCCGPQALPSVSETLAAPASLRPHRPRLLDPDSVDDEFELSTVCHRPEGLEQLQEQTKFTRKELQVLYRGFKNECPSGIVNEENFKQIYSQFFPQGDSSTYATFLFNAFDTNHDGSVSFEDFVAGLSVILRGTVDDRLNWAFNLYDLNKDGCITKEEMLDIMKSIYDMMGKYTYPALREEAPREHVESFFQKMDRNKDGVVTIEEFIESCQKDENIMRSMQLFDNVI
Procedure: as §7, §8
hKv4.3/hKChIP2 Potassium Channel Assay—Qube APC After whole cell configuration is achieved, the cells are held at −80 mV. Onset and steady state block of hKv4.3 current is measured using a pulse pattern from −80 mV to 40 mV amplitude for a 110 ms duration, and finally a 100 ms ramp (1.2 V/s) to −80 mV. This paradigm is delivered once every 5 s to monitor the current amplitude.

SERT = SERT (Rattus norvegicus (Rat), UniProt P31652); assay: [3H]5-HT uptake inhibition in rat brain synaptosomes; format: biochemical
Procedure: as §3, §4, §5, §6

NET [4] = assay: [3H]Norepinephrine uptake inhibition in rat brain synaptosomes; format: biochemical; details: NE
Procedure: as §3, §4, §5, §6

SMILES | Estimated IC50 (hNav1.5) | IC50 (DAT [1]) [µM] | Effect on the cardiac ion channels tested (cardiac ion channels) | EC50 (DAT [2]) [µM] | Estimated IC50 (hKCNQ1/hminK) | EC50 (NET [3]) [µM] | Estimated IC50 (hERG) | Estimated IC50 (hKv4.3/hKChIP2) | IC50 (SERT) [µM] | IC50 (NET [4]) [µM]
CN[C@H](C)C(=O)c1ccc2c(c1)OCO2 [(R)-methylone] | N/C (N/C indicates observed mean inhibition was <25%) | 3.44 | do not directly inhibit the activity of cardiac channels | 4.77 | N/C (N/C indicates observed mean inhibition was <25%) | 0.191 | N/C (N/C indicates observed mean inhibition was <25%) | N/C (N/C indicates observed mean inhibition was <25%) | 7.62 | 0.242
CN[C@@H](C)C(=O)c1ccc2c(c1)OCO2 [(S)-methylone] | N/C (N/C indicates observed mean inhibition was <25%) | 0.634 | do not directly inhibit the activity of cardiac channels | 3.28 | N/C (N/C indicates observed mean inhibition was <25%) | 0.76 | N/C (N/C indicates observed mean inhibition was <25%) | N/C (N/C indicates observed mean inhibition was <25%) | 0.395 | 0.316
